# Publication PMC5353710, “Structural insights into the γ-lactamase activity and substrate enantioselectivity of an isochorismatase-like hydrolase from Microbacterium hydrocarbonoxydans” (Scientific Reports, 2017)
# Experiments:
# [1] = target: T1, MhIHL (Mh33H4-5540) (Microbacterium hydrocarbonoxydans, UniProt A0A0K0XHU0, C111A); conditions: inactive variant; crystal soaked in 500 mM ligand for 10 min; active site
# [2] = target: T1, MhIHL (Mh33H4-5540); conditions: inactive variant; crystal soaked in 250 mM ligand for 1.5 h; active site
smiles,measurement,setting,value
"O=C1N[C@@H]2C=C[C@H]1C2 [(+)-γ-lactam, 2-Azabicyclo[2.2.1]hept-5-en-3-one]","X-ray crystal structure, 1.79 Å",[1],The final MhIHL–(+)-γ-lactam complex crystals were obtained by soaking the crystal
"O=C1N[C@H]2C=C[C@@H]1C2 [(−)-γ-lactam, 2-Azabicyclo[2.2.1]hept-5-en-3-one]","X-ray crystal structure, 1.99 Å",[2],The final crystals of MhIHL–(−)-γ-lactam complex were obtained by soaking the crystal
